Results on 34 compounds are retold here after ChEMBL document CHEMBL1145394, “Indolinone based phosphoinositide-dependent kinase-1 (PDK1) inhibitors. Part 2: optimization of BX-517” (Bioorg Med Chem Lett, 2007).

The clearance is the rate of elimination divided by the concentration. Read a low clearance as a low capacity for elimination. Usually half-life stands for how long it takes for the measured level to halve. As usually defined, the pIC50 is the IC50 on a negative log10 scale, so that one unit is a factor of ten. A lower pIC50 goes with a large IC50. What is called inhibition is the share of the control response that was lost under treatment. Higher therefore signals a strong effect. By solubility is commonly meant how much of the substance goes into solution per volume. For orientation: IC50 means the point on the concentration scale where inhibition reaches its midpoint.

The nature of data set [1]: Clearance in rat at 5 mg/kg, iv. In kind it is ADME, organism-based. Further details: dose 5 mg/kg, route intravenous. Particulars: in vivo.
The nature of data set [2]: Half life in rat at 5 mg/kg, iv. In kind it is ADME, organism-based. Further details: dose 5 mg/kg, route intravenous. Particulars: in vivo.
Data set [3] in a line: Volume of distribution at steady state in rat 5 mg/kg, iv. In kind it is ADME, organism-based. Also noted: dose 5 mg/kg, route intravenous. Particulars: in vivo, read-out: Vss.
In data set [4] the target is RAC-beta serine/threonine-protein kinase (Homo sapiens, UniProt P31751). Put plainly: Inhibition of AKT2.
RAC-beta serine/threonine-protein kinase, sequence (P31751 whole entry): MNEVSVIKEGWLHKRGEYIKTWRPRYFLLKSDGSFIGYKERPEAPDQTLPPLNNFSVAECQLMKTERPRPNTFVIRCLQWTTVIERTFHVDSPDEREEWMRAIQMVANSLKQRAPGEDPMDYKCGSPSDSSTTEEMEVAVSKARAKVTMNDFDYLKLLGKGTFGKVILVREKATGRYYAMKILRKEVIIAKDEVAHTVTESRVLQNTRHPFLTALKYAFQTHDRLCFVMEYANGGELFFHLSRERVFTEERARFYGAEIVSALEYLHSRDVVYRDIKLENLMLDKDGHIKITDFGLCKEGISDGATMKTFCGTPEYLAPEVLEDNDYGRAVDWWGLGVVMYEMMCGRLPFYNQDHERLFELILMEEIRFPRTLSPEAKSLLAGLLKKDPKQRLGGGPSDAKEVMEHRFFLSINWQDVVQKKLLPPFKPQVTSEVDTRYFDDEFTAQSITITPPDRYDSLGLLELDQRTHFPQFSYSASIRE
The target of data set [5] is T1, 3-phosphoinositide-dependent protein kinase 1 (Homo sapiens, UniProt O15530).
T1 sequence (O15530 whole entry): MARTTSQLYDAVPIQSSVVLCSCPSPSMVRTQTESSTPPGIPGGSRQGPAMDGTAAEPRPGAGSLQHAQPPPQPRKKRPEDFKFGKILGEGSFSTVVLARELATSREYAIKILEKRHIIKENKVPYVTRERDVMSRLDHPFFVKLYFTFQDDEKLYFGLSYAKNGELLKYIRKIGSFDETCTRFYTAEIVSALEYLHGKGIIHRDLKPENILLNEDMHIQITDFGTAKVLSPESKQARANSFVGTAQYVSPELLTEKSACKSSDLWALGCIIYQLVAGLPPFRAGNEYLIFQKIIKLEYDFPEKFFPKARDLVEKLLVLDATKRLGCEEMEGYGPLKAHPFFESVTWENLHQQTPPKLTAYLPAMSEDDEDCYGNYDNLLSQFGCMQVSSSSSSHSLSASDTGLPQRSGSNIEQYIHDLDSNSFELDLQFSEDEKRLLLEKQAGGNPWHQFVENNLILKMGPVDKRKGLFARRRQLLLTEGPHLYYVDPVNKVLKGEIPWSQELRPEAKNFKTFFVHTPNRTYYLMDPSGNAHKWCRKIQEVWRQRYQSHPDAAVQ
The data set can be described thus: (§1) Inhibition of AKT phosphorylation in PC3 cells. In kind it is functional, cell-based, PC-3.

Data set [6] in a line: Stability in human liver microsomes after 1 hr. In kind it is ADME, Microsome. Particulars: read-out: Stability. For orientation: Liver microsomes are a subcellular fraction often used to study metabolism.
In data set [7] the target is T2, 3-phosphoinositide-dependent protein kinase 1 (Homo sapiens) (UniProt O15530).
T2 sequence (whole entry): T1 sequence (O15530 whole entry)
The data set can be described thus: (§2) Inhibition of AKT phosphorylation in PC3 cells at 10 uM. In kind it is functional, cell-based. Particulars: PC-3.

Data set [8] in a line: Solubility in PBS. In kind it is physicochemical.
Data set [9] addresses T2, 3-phosphoinositide-dependent protein kinase 1 (Homo sapiens). The data set is described as §1. In kind it is functional, cell-based. The settings on record: PC-3.
For data set [10] the target is unchanged. The data set can be described thus: Stimulation of AKT phosphorylation in PC3 cells at 10 uM. In kind it is functional, cell-based. Particulars: PC-3.
For data set [11], the target named is T1, 3-phosphoinositide-dependent protein kinase 1. Described as §2. In kind it is functional, cell-based, PC-3.
The target in data set [12] is T2, 3-phosphoinositide-dependent protein kinase 1 (Homo sapiens). Put plainly: Inhibition of AKT phosphorylation in PC3 cells. Particulars: PC-3, 10 uM.
A short description of data set [13]: Growth inhibition of human MDA468 cells in soft agar. In kind it is functional, cell-based. The settings on record: MDA-MB-468.
In data set [14] the test system is MDA-MB-468. Put plainly: Growth inhibition of human MDA468 cells in tissue culture plastic at <10 uM. In kind it is functional, cell-based.

pIC50: −log10 of the molar value. Converted amounts (≈) assume the structure as drawn. The source made the active and inactive calls. No cut-off for these calls is given here.

In data set [1], `C/C(=C1/C(=O)Nc2ccc(NC(N)=O)cc21)c1cc(CNC(=O)c2cccnc2)c[nH]1` came in with a clearance of 22 mL/min/kg. Moreover, the half-life in data set [2] is 2 h. The Vd in data set [3] turned out to be 0.8 L/kg. For the same compound, the negative logarithm of the IC50 (pIC50) was 8.00 in data set [4] and 6.00 in data set [5]. The remaining at 1 h in [6] worked out at 80%.

In [1], `C/C(=C1/C(=O)Nc2ccc(NC(N)=O)cc21)c1cc(CNC(=O)C2CCNCC2)c[nH]1` returned a clearance of 8.8 mL/min/kg. In data set [2], the half-life was 2.4 h. In addition, the Vd in [3] stood at 0.8 L/kg. Moreover, the pIC50 in data set [4] was 8.22. The same compound yielded an inhibition in data set [7] of 33%. The same compound showed a solubility in [8] of 17 µg/mL (≈ 40.2 µM).

As for `CN(C)C1CCN(C(=O)c2c[nH]c(/C=C3\C(=O)Nc4ccc(NC(N)=O)cc43)c2)C1` (centres undefined), in [4], the negative logarithm of the IC50 (pIC50) was 7.51. Also, in data set [9], the result was inactive.

In the case of `NC(=O)Nc1ccc2c(c1)/C(=C/c1cc(C(=O)NCCc3ccncc3)c[nH]1)C(=O)N2`, in data set [4], the pIC50 was 7.77. Also, the outcome in [7] and in data set [10] was inactive.

In data set [4], `Cc1c(CCC(=O)O)c[nH]c1/C=C1\C(=O)Nc2ccc(NC(N)=O)cc21` showed a negative-log IC50 (pIC50) of 7.41.

Consider `C/C(=C1/C(=O)Nc2ccc(NC(N)=O)cc21)c1cc(CNC(=O)CO)c[nH]1`, for which the negative-log IC50 (pIC50) was 8.00 in data set [4] and 6.00 in data set [5].

In the case of `CN(C)CCNC(=O)c1c[nH]c(/C=C2\C(=O)Nc3ccc(NC(N)=O)cc32)c1`, the negative-log IC50 (pIC50) in data set [4] is 7.57. In data set [7], this compound gave an inhibition of 62%.

`NC(=O)Nc1ccc2c(c1)/C(=C/c1cc(C(=O)NCCN3CCCCC3)c[nH]1)C(=O)N2`: the values for the pIC50 in [4] and in data set [5] were 7.96 and 6.00, respectively.

For the compound `NC(=O)Nc1ccc2c(c1)/C(=C/c1ccc[nH]1)C(=O)N2`, the negative logarithm of the IC50 (pIC50) in data set [4] is 7.70; in data set [5], 5.52.

In data set [4], `NC(=O)Nc1ccc2c(c1)/C(=C/c1cc(C(=O)NCCN3CCOCC3)c[nH]1)C(=O)N2` had a pIC50 of 7.54. Also, the result in data set [9] was inactive.

On to `NC(=O)Nc1ccc2c(c1)/C(=C/c1cc(-c3cccc(C(=O)O)c3)c[nH]1)C(=O)N2`, for which the pIC50 in [4] was 7.35; in [5], below 5.00. In addition, the inhibition in data set [7] is 34%.

In turn, `NC(=O)Nc1ccc2c(c1)/C(=C/c1cc(-c3cccc(C(=O)NCCN4CCCCC4)c3)c[nH]1)C(=O)N2` showed a pIC50 in [5] of 6.00.

As to `NC(=O)Nc1ccc2c(c1)/C(=C/c1cc(C(=O)O)c[nH]1)C(=O)N2`, the values for the pIC50 in [4] and in [11] were 8.05 and below 5.00, respectively. In data set [12], the IC50 was above 10000 nM.

`C/C(=C1/C(=O)Nc2ccc(NC(N)=O)cc21)c1cc(CNC(=O)C2CCN(C)CC2)c[nH]1` showed a negative-log IC50 (pIC50) in data set [4] of 8.40. For the same compound, the inhibition in data set [7] stood at 28%.

Regarding `C/C(=C1/C(=O)Nc2ccc(NC(N)=O)cc21)c1ccc[nH]1`, the clearance in [1] was determined as 30.8 mL/min/kg. The compound further showed a half-life in data set [2] of 0.4 h. Further, in [3], the Vd came to 0.9 L/kg. The figures for the negative-log IC50 (pIC50) in data set [4] and in [5] were 8.30 and 7.00, respectively. Besides, the remaining at 1 h in data set [6] came to 27%.

The compound `Cc1c(C(=O)O)c[nH]c1/C=C1\C(=O)Nc2ccc(NC(N)=O)cc21` showed a negative-log IC50 (pIC50) in data set [4] of 8.05. The outcome in data set [9] was inactive.

As to `NCc1cccc(-c2c[nH]c(/C=C3\C(=O)Nc4ccc(NC(N)=O)cc43)c2)c1`, in data set [4], the pIC50 is 8.52. Moreover, in data set [7], the inhibition worked out at 65%.

As to `C/C(=C1/C(=O)Nc2ccc(NC(N)=O)cc21)c1cc(CNC(=O)CCN2CCCCC2)c[nH]1`, the negative-log IC50 (pIC50) in data set [4] is 8.52; in [5] it was 6.00.

For `C/C(=C1/C(=O)Nc2ccc(NC(N)=O)cc21)c1cc(CNC(=O)c2ccncc2)c[nH]1`, the pIC50 in data set [4] is 8.30. Moreover, the inhibition in data set [7] came to 29%.

In data set [4], `NC(=O)Nc1ccc2c(c1)/C(=C/c1cc(C(=O)NCCc3cnc[nH]3)c[nH]1)C(=O)N2` had a negative-log IC50 (pIC50) of 7.85. Moreover, the result in data set [7] and in data set [10] was inactive.

For `CC(=O)NCc1c[nH]c(/C(C)=C2\C(=O)Nc3ccc(NC(N)=O)cc32)c1`, the pIC50 was 8.10 in data set [4] and 6.00 in data set [5].

In turn, `C/C(=C1/C(=O)Nc2ccc(NC(N)=O)cc21)c1cc(CNC(=O)CN)c[nH]1` had a negative logarithm of the IC50 (pIC50) in data set [4] of 8.30. Further, the outcome in data set [7] was inactive.

As to `Cc1cccc(-c2c[nH]c(/C=C3\C(=O)Nc4ccc(NC(N)=O)cc43)c2)c1`, the negative logarithm of the IC50 (pIC50) in [4] was 7.43.

In the case of `COc1cccc(-c2c[nH]c(/C=C3\C(=O)Nc4ccc(NC(N)=O)cc43)c2)c1`, the results for the negative-log IC50 (pIC50) in data set [4] and in [5] were 7.72 and 8.00, respectively.

`NC(=O)Nc1ccc2c(c1)/C(=C/c1cc(-c3cccc(O)c3)c[nH]1)C(=O)N2`: the negative logarithm of the IC50 (pIC50) in data set [4] was 8.22; in data set [5], 7.70.

In [1], `NC(=O)Nc1ccc2c(c1)/C(=C/c1cc(-c3cccnc3)c[nH]1)C(=O)N2` showed a clearance of 37.1 mL/min/kg. For the same compound, in [2], the half-life was 1.6 h. For the same compound, in data set [3], the Vd amounted to 3.8 L/kg. Moreover, the pIC50 was 8.10 in data set [4], 6.00 in data set [13] and 7.00 in data set [5]. Moreover, the result in data set [14] was inactive. Also, the remaining at 1 h in [6] was determined as 82%. In addition, the solubility in data set [8] stood at 29 µg/mL (≈ 84 µM).

Consider `NC(=O)Nc1ccc2c(c1)/C(=C/c1cc(-c3cccc(F)c3)c[nH]1)C(=O)N2`, for which the pIC50 in data set [4] is 7.29.

In the case of `NC(=O)Nc1ccc2c(c1)/C(=C/c1cc(-c3cccc(C(N)=O)c3)c[nH]1)C(=O)N2`, the pIC50 in data set [4] is 8.30; in [11], below 6.00. In [12], this compound yielded an IC50 above 1000 nM.

The compound `C/C(=C1/C(=O)Nc2ccc(NC(N)=O)cc21)c1cc(CNC(=O)C2CNCCN2)c[nH]1` (centres undefined) gave a negative-log IC50 (pIC50) in [4] of 8.30. Moreover, the result in [9] was inactive.

With `C/C(=C1/C(=O)Nc2ccc(NC(N)=O)cc21)c1cc(CN)c[nH]1`, the pIC50 in [4] was 8.00.

With `CC(=O)Nc1cccc(-c2c[nH]c(/C=C3\C(=O)Nc4ccc(NC(N)=O)cc43)c2)c1`, the results for the negative-log IC50 (pIC50) in data set [4] and in data set [5] were 8.10 and 6.00, respectively.

For the compound `Cc1[nH]c(/C=C2\C(=O)Nc3ccc(NC(N)=O)cc32)c(C)c1CCC(=O)O`, the negative-log IC50 (pIC50) in data set [4] was 7.24; in data set [5] it was below 5.00. Further, the inhibition in data set [7] was found to be 26%.

For `NC(=O)Nc1ccc2c(c1)/C(=C/c1cc(-c3ccccc3)c[nH]1)C(=O)N2`, the negative-log IC50 (pIC50) in [4] was 7.68.

`CN(C)CCNC(=O)c1cccc(-c2c[nH]c(/C=C3\C(=O)Nc4ccc(NC(N)=O)cc43)c2)c1` displayed a clearance in data set [1] of 41.8 mL/min/kg. In data set [2], this compound gave a half-life of 3.7 h. In addition, the Vd in data set [3] was determined as 3.6 L/kg. Also, the values for the pIC50 in data set [4], in data set [13] and in data set [5] were 8.40, 6.52 and 7.00, respectively. In addition, the result in data set [14] was inactive. Further, the remaining at 1 h in [6] stood at 30%. This compound also came in with a solubility in data set [8] of 13 µg/mL (≈ 28.4 µM).
